Measured values reported in patent US11767344B2, “Pharmaceutically acceptable salts of polypeptides and methods of inhibiting the interaction between psd-95 and n-methyl-d-aspartic acid receptor (nmdar)” (BIOCELLS (BEIJING) BIOTECH CO., LTD., priority 2017, dated 2023).
“Also recorded” adds a separate entry of the source.

What was measured:
PC12 cells = conditions: 5 μM, 24 hours
PDZ1/2 domain [1] = target: T1, PDZ1/2 domain (Homo sapiens, UniProt P78352)
PDZ1/2 domain [2] = target: T1, PDZ1/2 domain; conditions: His beads, SDS-PAGE of eluate, FIG. 1

T1 sequence (P78352 61-249 limits assumed): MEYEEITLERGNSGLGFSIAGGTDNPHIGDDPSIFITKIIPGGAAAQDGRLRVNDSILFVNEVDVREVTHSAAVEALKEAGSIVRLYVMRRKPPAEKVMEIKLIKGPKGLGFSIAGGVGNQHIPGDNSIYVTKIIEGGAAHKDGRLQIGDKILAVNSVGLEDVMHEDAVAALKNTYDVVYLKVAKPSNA

SMILES | cytotoxicity (cell viability) (PC12 cells) | interaction with the PDZ1/2 domain as compared with control chimeric peptide NA-1 (PDZ1/2 domain [1]) | binding to PDZ1/2 domain in pull-down assay (PDZ1/2 domain [2])
CC[C@H](C)[C@H](NC(=O)[C@H](CCC(=O)O)NC(=O)[C@@H](NC(=O)[C@H](CC(=O)O)NC(=O)[C@H](CC(C)C)NC(=O)[C@H](CC(C)C)NC(=O)[C@H](CCCCN)NC(=O)[C@H](CCC(=O)O)NC(=O)[C@H](Cc1ccc(O)cc1)NC(=O)[C@H](CCCNC(=N)N)NC(=O)[C@H](CCCNC(=N)N)NC(=O)[C@H](CCCNC(=N)N)NC(=O)[C@H](CCC(N)=O)NC(=O)[C@H](CCCNC(=N)N)NC(=O)[C@H](CCCNC(=N)N)NC(=O)[C@H](CCCCN)NC(=O)[C@H](CCCCN)NC(=O)[C@H](CCCNC(=N)N)NC(=O)CNC(=O)[C@@H](N)Cc1ccc(O)cc1)[C@@H](C)O)C(=O)O [P5-Ac] | no significant cytotoxicity |  | 
CC[C@H](C)[C@H](NC(=O)[C@H](CCC(=O)O)NC(=O)[C@@H](NC(=O)[C@H](CC(=O)O)NC(=O)[C@H](CC(C)C)NC(=O)[C@H](CC(C)C)NC(=O)[C@H](CCCCN)NC(=O)[C@H](CCC(=O)O)NC(=O)[C@H](Cc1ccc(O)cc1)NC(=O)[C@H](CCCNC(=N)N)NC(=O)[C@H](CCCNC(=N)N)NC(=O)[C@H](CCCNC(=N)N)NC(=O)[C@H](CCC(N)=O)NC(=O)[C@H](CCCNC(=N)N)NC(=O)[C@H](CCCNC(=N)N)NC(=O)[C@H](CCCCN)NC(=O)[C@H](CCCCN)NC(=O)[C@H](CCCNC(=N)N)NC(=O)CNC(=O)[C@@H](N)Cc1ccc(O)cc1)[C@@H](C)O)C(=O)O [P5] |  | interacted more strongly | can bind to the PDZ1/2 domain; also recorded: capable of binding to PDZ1/2 domain
